What was measured:
[1] = system: S. aureus binding to thrombocytes; test: S. aureus-thrombocyte associate formation, flow cytometry; assay type: cell-based
Experimental: Thrombocytes were labelled with a thrombocyte-specific phycoerythrin-conjugated anti-GPIX antibody (clone Beb 1). Bacteria (various S. aureus strains) were adjusted with Tris-buffered saline solution (TBS) to a number of 250,000 microorganisms/μl and labelled with the RNA-dye Syto 13 [MoBiTec, Göttingen] at a concentration of 2 μM. Labelled bacteria and labelled thrombocytes were co-incubated for 10 minutes at a ratio of 10:1.
The cell population were analysed in a flow cytometer. Cells that were positive for both fluorochromes were classified as associates (see FIG. 12a). Thrombin stimulation and release of TSP from the α-granula of the platelets increased the percentage of platelets carrying bacteria by 2.5-fold relative to the total number of thrombocytes.

thrombocytes [2] = test: Adhesion of thrombocytes to adhesion proteins (microtitre plate, hexosaminidase); assay type: cell-based; conditions: for inhibition of IDAAT-mediated adhesion: Heparan sulfate 0-10 μg/ml, sulfatide 0-20 μg/ml; for inhibition of IDAAT-mediated adhesion of thrombocytes to collagen / inhibition of IDAAT-mediated adhesion of thrombocytes to thrombospondin (immobilized TSP-1): EDTA 5 mM; for inhibition of IDAAT-mediated adhesion of thrombocytes to thrombospondin (immobilized TSP-1): integrins 5 μg/ml, Wortmannin 20 nM, LY294002 50 μm, clone 37 with Fc receptor blocked by IV.3
Experimental: The adhesion of thrombocytes was carried out according to Santoro et al, 1994. […] Non-adhering thrombocytes were thoroughly washed out. The number of adhering platelets was determined by lysing the platelets with Triton X-100 and determining the lysosomal enzyme hexosaminidase. In order to calibrate the adhesion assay a calibration series containing a known and increasing number of platelets was added to the microtitre plate and the absorbance of the reacted substrate p-nitrophenyl-N-acetyl-β-glucosaminide was determined in relation to the number of platelets.

TNF α = TNF α secretion of monocytes activated with S. aureus and interferon γ (ELISA); assay type: cell-based; conditions: substance alone
Experimental: FIG. 9: The IL-10 secretion of monocytes activated with S. aureus and interferon γ is increased by IDAAT. Thus IDAAT promotes the secretion of an interleukin which protects against LPS-induced lethality in animal experiments. The method used was carried out analogously to FIG. 8. IL-10 was determined by means of an ELISA. FIG. 10 (sequence in the figure title: SEQ ID NO:2): The TNF α secretion of monocytes activated with S. aureus and interferon γ is inhibited by the TSP-1 peptide […] NO: 2) (10a). […] TNF α was determined by means of an ELISA. The method used was carried out analogously to FIG. 8. FIG. 11: IDAAT inhibits the Arthus reaction in the ear of Balb-C mice • a) Mouse treated twice intraperitoneally at time 0 and 0+3 hours with 50 μg IDAAT each time. Arthus reaction in the left ear • b) Mouse treated intraperitoneally twice with control buffer. Arthus reaction in the left ear • c) BSA-FITC incorporated into the ears as a measure for the Arthus reaction in mice treated with IDAAT or control buffer. Arthus reaction in the left ear. FIG. 12: • a) dot plot of the thrombocyte-bacterial association • A: thrombocytes labelled with PE-conjugated anti-GPIX antibody (Beb 1) • B: bacteria (S. aureus) labelled with Syto 13 • C: bacteria-thrombocyte associates emitting both fluorescences • b) S. aureus (Cowan 1)-thrombocyte associates

monocytes = test: TSP-1 binding to monocytes, flow cytometry with anti-TSP antibody clone P10-PE; assay type: cell-based, human; conditions: 10 μg/ml purified TSP-1, without IDAAT; ~1% without additions
Experimental: Whereas without the addition of purified TSP-1 and without the addition of IDAAT only ˜1% of eluted human monocytes could be detected in a flow cytometer by an antibody (clone P10) which recognizes TSP-1 on the cell surface, the number increases to ca. 5% by adding 10 μg/ml purified TSP-1.
(§1) Apoptotic PMNL were incubated for 30 minutes with Hepes-Tyrode buffer pH 7.4, washed, labelled with the anti-TSP antibody P10-PE and the fluorescence of 3000 cells was measured in a flow cytometer • b) PMNL were made apoptotic by incubation in a cell culture medium for 24 hours in an incubator according to Savill et al., 1992. Apoptotic PMNL were incubated for 30 minutes with TSP-1 (5 μg/ml) and IDAAT (10 μg/ml) in Hepes-Tyrode buffer pH 7.4, washed, labelled with the TSP antibody P10-PE and the fluorescence of 3000 cells was measured in a flow cytometer. • c) Procedure as in a and b: IDAAT was used at increasing concentrations, IDAAT mediates the binding of thrombospondin (10 μg/ml) that was either present endogenously or added exogenously. FIG. 3: IDAAT cross-links apoptotic PMNL with monocytes by means of TSP Eluted PMNL and eluted monocytes were incubated together for 30 minutes at room temperature with TSP and IDAAT at various concentrations and the cells were fixed. […] PE and FITC positive associates were measured using a flow cytometer. […]

[3] = system: monocytes through a HMEC-1 monolayer; test: Transmigration of monocytes through endothelium (Transwell); assay type: cell-based, human; conditions: purified TSP 25 μg/ml
Experimental: Transmigration experiments were carried out as described by Kielbassa et al., 1998. The addition of IDAAT to the culture medium of the monocytes during a transmigration experiment stimulates dose-dependently the transmigration of monocytes through the endothelium by 2-3-fold (see FIG. 4).
as §1, with “exogenously.” for “exogenously. FIG. 3: IDAAT cross-links apoptotic PMNL with monocytes by means of TSP Eluted PMNL and eluted monocytes were incubated together for 30 minutes at room temperature with TSP and IDAAT at various concentrations and the cells were fixed.”
After a 4 hour transmigration period, the inserts were carefully removed, the cell culture plate was placed for 30 min on ice in order to detach the adhered monocytes and the number of transmigrated monocytes was counted.

thrombocytes [4] = test: Thrombocyte aggregation according to Born; assay type: cell-based; conditions: purified thrombospondin 25 μg/ml alone
Experimental: Gel-filtered platelets (200,000/μl) in Hepes-Tyrode buffer pH 7.4 containing fibrinogen (100 μg/ml) were examined in an aggregometer according to Born.
The method used was elucidated in detail in the description of the example. FIG. 21: The addition of monocytes (100/μl) to thrombocytes (300,000/μl) increases the adhesion of thrombocytes to TSP-1, whereas the addition of erythrocytes (20,000/μl) has an inhibitory effect. The method used was elucidated in detail in the description of the example. FIG. 22: The IDAAT-induced thrombocyte adhesion was inhibited by the inhibitors of PI-3 kinase Wortmannin (20 nM) and LY294002 (50 μm). For this purpose Wortmannin and LY294002 were preincubated for 10 minutes before adding IDAAT. FIG. 23: IDAAT mediates thrombospondin-mediated thrombocyte aggregation Thrombocyte aggregation was carded out according to Born 1962. TSP-1 (25 μg/ml) was pipetted into an aggregation-cuvette containing gel-filtered platelets (200,000/μl) in Hepes-Tyrode buffer pH 7.4 containing 100 μg/ml fibrinogen. […] Addition of IDAAT led to a weak aggregation reaction Simultaneous addition of IDAAT and soluble TSP-1 led to a pronounced aggregation. FIG. 24: IDAAT mediates the microparticle formation of thrombocytes

## Thrombin [reference compound]
[1]; thrombin stimulation, release of TSP from α-granula
  increase of percentage of platelets carrying bacteria: 2.5 fold

## Heparan sulfate
Thrombocytes [2]
  inhibition of IDAAT-mediated adhesion: do not inhibit

## RFYVVMWK (listed as Homo sapiens) [TSP-1 peptide RFYVVMWK]
TNF α
  release/secretion of TNF α: inhibited

## sulfatide
Thrombocytes [2]
  inhibition of IDAAT-mediated adhesion: do not inhibit

## TSP-1: thrombospondin-1, trimeric modular glycoprotein purified from human thrombocytes
monocytes
  TSP-1 positive monocytes: ca. 5%
[3]
  transmigration of monocytes: stimulates the transmigration
[1]; TSP-1 added in addition to IDAAT
  S. aureus (Cowan-1)-thrombocyte associates: further increase in the number of associates
Thrombocytes [2]
  inhibition of IDAAT-mediated adhesion of thrombocytes to collagen: inhibits
  inhibition of IDAAT-mediated adhesion of thrombocytes to thrombospondin (immobilized TSP-1): inhibits
Thrombocytes [2]; FIG. 20, dose dependence
  adhesion of thrombocytes to collagen: dose-dependently inhibits
Thrombocytes [4]
  thrombocyte aggregation: no aggregation

## O=C(O)CN(CCN(CC(=O)O)CC(=O)O)CC(=O)O [EDTA]
Thrombocytes [2]
  inhibition of IDAAT-mediated adhesion of thrombocytes to collagen: completely inhibits
  inhibition of IDAAT-mediated adhesion of thrombocytes to thrombospondin (immobilized TSP-1): completely inhibits

Reference: patent US8114840B2, “Medicament containing activated antithrombin III” (Hamburger Stiftung zur Forderung Von Wissenschaft und Kultur, priority 2000, dated 2012)
